Columns and labels:
PS1 = test: Western blot of PS1 C-terminal fragment phosphorylation in SweAPP N2a cells; format: cell-based, murine
Protocol: Cultured cells or mouse brain were lysed in ice-cold lysis buffer described above, and an aliquot corresponding to 50 μg of total protein was electrophoretically separated using 12% Tris-HCl or 16.5% Tris-tricine gels. Electrophoresed proteins were then transferred to PVDF membranes, washed in dH2O, and blocked for 1 hr at ambient temperature in Tris-buffered saline (TBS; Bio-Rad) containing 5% (w/v) non-fat dry milk. After blocking, membranes were hybridized for 1 hr at ambient temperature with various primary antibodies. Membranes were then washed 3× for 5 min each in dH2O and incubated for 1 hr at ambient temperature with the appropriate HRP-conjugated secondary antibody (1:1,000). All antibodies were diluted in TBS containing 5% (w/v) of non-fat dry milk. Blots were developed using the luminol reagent (Pierce Biotechnology). Densitometric analysis was done as previously described using a FluorS Multiimager with Quantity One™ software. Immunoprecipitation was performed for detection of sAPP-α, sAPP-β and Aβ by incubating 200 μg of total protein of each sample with various sequential combinations of 6E10 (1:100) and/or 22C11 (1:100) antibodies overnight with gentle rocking at 4° C., and 10 μL of 50% protein A-Sepharose beads were then added to the sample (1:10; Sigma) prior to gentle rocking for an additional 4 hrs at 4° C. Following washes with 1× cell lysis buffer, samples were subjected to Western blot as described above. Antibodies used for Western blot included the APP-carboxyl-terminal antibody (1:50)), amino-terminal APP antibody (clone 22C11), or 6E10 (1:1,000), or actin antibody (1:1,500; as an internal reference control). γ-secretase activity was quantified in cell lysates using available kits (R&D Systems, Minneapolis, Minn.), based on secretase-specific peptides conjugated to fluorogenic reporter molecules.
The two bands of highest molecular weight, approximately 20 kD and 18 kD in size, represent phosphorylated PS1 CTFs with a smaller 16 kD band representing the more common CTF product indicative of PS1 endoproteolytic cleavage.
To confirm that the 20 kD and 18 kD bands were phosphorylated PS1 isoforms, SweAPP N2a cells were treated with luteolin (20 μM) prior to lysis and cell lysates incubated with calf intestine alkaline phosphatase (CIAP) (Fermentas, Hanover, Md.), to dephosphorylate any potential phosphorylated proteins, to eliminate skewing of electrophorectic mobilities. Following 30 minutes of incubation, the 20 kD band is not evident in the CIAP treated lysates, seen in FIGS. 21(A) through 22, and the 18 kD band reduced while endogenous CTF, 16 kD, appears to accumulate. When compared to lysates incubated with only reaction buffer, phosphorylated residues decrease in a time dependent manner, shown by the 20 kD CTF:16 kD CTF. […] Luteolin affects PS1 phosphorylation and may indicate a means by which γ-secretase activity may be regulated.
To determine if this phenomenon was specifically attributable to luteolin treatment or more generally in regards to GSK-3 inhibition, SweAPP N2a cells were treated with a range of doses of the GSK-3 inhibitor SB-415286 (BIOMOL®, Plymouth Meeting, Pa.). […] FIG. 24(B). GSK-3α and β was successfully knocked-down (>70%, data not shown) with siRNA in SweAPP N2a cells, substantiating the role of GSK-3α in this luteolin-mediated PS1 processing. […]

TACE, ADAM10, sAPPα = test: non-amyloidogenic APP processing (TACE, ADAM10 maturation, sAPPα release); format: cell-based; details: data not shown
Source text: The presence of phosphorylated PS1 CTFs corresponds with reduction of Aβ generation and accumulation of the β-CTF of APP, as was observed following luteolin treatment. The accumulation β-CTFs following luteolin treatment is a fraction of β-CTF seen after direct γ-secretase inhibitor treatment (data not shown). In view of this finding, selective GSK-3 inactivation is a less toxic, more regulative, substrate-specific mode of γ-secretase inhibition. Earlier studies routinely employed phorbol-12,13-dibutyrate (PDBu), a potent PKC activator, as their phosphorylating agent. Thus, luteolin was tested for similar PKC activation, rather than a GSK-3 inhibitor. […] Additionally, there are no indications GSK-3α inhibition affects non-amyloidogenic processing of APP, since luteolin, SB-415286, and GSK-3α RNAi treatment have no effect on the maturation of TACE, ADAM10, or sAPPα release (data not shown), which are all strongly associated with PKC activation.

O=c1cc(-c2ccc(O)c(O)c2)oc2cc(O)cc(O)c12 [luteolin]
PS1 CTF phosphorylation (phospho-PS1 CTF to PS1 CTF ratio) (PS1): PS1 CTF phosphorylation increases | full-length PS1 or PS1 NTF protein levels (PS1; range of doses, 4 hrs): no significant effect | maturation of TACE, ADAM10, or sAPPα release (TACE, ADAM10, sAPPα): no effect

— patent publication US8802638B1, “Flavonoid treatment of glycogen synthase kinase-based disease” (University of South Florida, priority 2007, dated 2014)
